Data: US9980943B2, “Methods of treating muscular dystrophy” (BOARD OF REGENTS OF THE NEVADA SYSTEM OF HIGHER EDUCATION, …, priority 2013, dated 2018)

Tests used:
Assay type in all cases: cell-based, mouse
[1] = tested on: α7 integrin (LacZ reporter in α7βgal+/− myoblasts); test: Myoblast α7+/LacZ integrin FDG assay (Burkin assay in myoblasts, 96-well); details: 96-well; for Burkin Assay in Myoblasts, signal relative to DMSO: α7+/LacZ myoblasts; for Burkin Assay in Myoblasts, value relative to DMSO: SU9516 analogs, N=3-6
[2] = tested on: α7 integrin (LacZ reporter in α7+/LacZ myotubes); test: Myotube α7 integrin FDG assay (Burkin assay in myotubes, 96-well); details: for Burkin Assay in Myotubes, value relative to DMSO: SU9516 analogs, 96-well, N=3-6
[3] = tested on: β-galactosidase in CMV-LacZ C2C12 myoblasts; test: CMV-LacZ secondary screen in C2C12 myoblasts (β-Gal stabilizing assay); details: for CMV-LACZ in Myoblasts (β-galactosidase activity relative to DMSO): CMV-LacZ C2C12 myoblasts; for CMV-LACZ in Myoblasts, value relative to DMSO: SU9516 analogs, C2C12 CMV-LacZ, N=2
Outline: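 CMV-LacZ C2C12 line (clonal, FDG-screened); myoblasts/myotubes dosed 0.5–40 μM (0.5, 1, 5, 10, 20, 40 μM); n=2 per point; β-gal stabilization read-out.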

[4] = tested on: β-galactosidase in CMV-LacZ C2C12 myotubes; test: CMV-LacZ secondary screen in C2C12 myotubes (β-Gal stabilizing assay); details: for CMV-LACZ in Myotubes, signal relative to DMSO: C2C12 CMV-LacZ myotubes, fold relative to DMSO; for CMV-LACZ in Myotubes, value relative to DMSO: SU9516 analogs, C2C12 CMV-LacZ, N=2
Outline: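 First, C2C12 myoblasts were transfected with a linearized CMV-LACZ vector and clonal lines selected by FDG β-gal assay. Then cells were exposed to compounds at 0.5, 1, 5, 10, 20 and 40 μM in 96-well format, two replicates each, and β-gal measured.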

## Cc1ccccc1S(=O)(=O)N1C[C@H]2CON(C)[C@H]2C[C@H]1c1cccc(-c2ccccc2)c1 [MLS002694363-01]
[1]; 0.5 uM
  Burkin Assay in Myoblasts, signal relative to DMSO: 1.062
[1]; 1 uM
  Burkin Assay in Myoblasts, signal relative to DMSO: 1.061
[1]; 5 uM
  Burkin Assay in Myoblasts, signal relative to DMSO: 1.045
[1]; 10 uM
  Burkin Assay in Myoblasts, signal relative to DMSO: 1.09
[1]; 20 uM
  Burkin Assay in Myoblasts, signal relative to DMSO: 0.7581
[1]; 40 uM
  Burkin Assay in Myoblasts, signal relative to DMSO: 0.7066
[2]; 0.5 uM
  Burkin Assay in Myotubes, α7 integrin LacZ reporter signal relative to DMSO: 0.9909
[2]; 1 uM
  Burkin Assay in Myotubes, α7 integrin LacZ reporter signal relative to DMSO: 1.01
[2]; 5 uM
  Burkin Assay in Myotubes, α7 integrin LacZ reporter signal relative to DMSO: 0.9178
[2]; 10 uM
  Burkin Assay in Myotubes, α7 integrin LacZ reporter signal relative to DMSO: 0.8787
[2]; 20 uM
  Burkin Assay in Myotubes, α7 integrin LacZ reporter signal relative to DMSO: 0.6694
[2]; 40 uM
  Burkin Assay in Myotubes, α7 integrin LacZ reporter signal relative to DMSO: 0.4108
[3]; 0.5 uM
  CMV-LACZ in Myoblasts (β-galactosidase activity relative to DMSO): 1.1110
[3]; 1 uM
  CMV-LACZ in Myoblasts (β-galactosidase activity relative to DMSO): 1.2840
[3]; 5 uM
  CMV-LACZ in Myoblasts (β-galactosidase activity relative to DMSO): 0.7616
[3]; 10 uM
  CMV-LACZ in Myoblasts (β-galactosidase activity relative to DMSO): 1.0392
[3]; 20 uM
  CMV-LACZ in Myoblasts (β-galactosidase activity relative to DMSO): 1.0123
[3]; 40 uM
  CMV-LACZ in Myoblasts (β-galactosidase activity relative to DMSO): 0.5698
[4]; 0.5 uM
  CMV-LACZ in Myotubes, signal relative to DMSO: 1.0695
[4]; 1 uM
  CMV-LACZ in Myotubes, signal relative to DMSO: 1.1800
[4]; 5 uM
  CMV-LACZ in Myotubes, signal relative to DMSO: 1.1420
[4]; 10 uM
  CMV-LACZ in Myotubes, signal relative to DMSO: 0.9775
[4]; 20 uM
  CMV-LACZ in Myotubes, signal relative to DMSO: 0.9870
[4]; 40 uM
  CMV-LACZ in Myotubes, signal relative to DMSO: 0.7460

## Cc1cccc(NCC(=O)N/N=C\c2ccccn2)c1 [MLS000710288-01]
[1]; 0.5 uM
  Burkin Assay in Myoblasts, signal relative to DMSO: 1.168
[1]; 1 uM
  Burkin Assay in Myoblasts, signal relative to DMSO: 1.305
[1]; 5 uM
  Burkin Assay in Myoblasts, signal relative to DMSO: 1.3928
[1]; 10 uM
  Burkin Assay in Myoblasts, signal relative to DMSO: 1.1778
[1]; 20 uM
  Burkin Assay in Myoblasts, signal relative to DMSO: 0.8681
[1]; 40 uM
  Burkin Assay in Myoblasts, signal relative to DMSO: 0.5963
[2]; 0.5 uM
  Burkin Assay in Myotubes, α7 integrin LacZ reporter signal relative to DMSO: 1.076
[2]; 1 uM
  Burkin Assay in Myotubes, α7 integrin LacZ reporter signal relative to DMSO: 0.9575
[2]; 5 uM
  Burkin Assay in Myotubes, α7 integrin LacZ reporter signal relative to DMSO: 1.084
[2]; 10 uM
  Burkin Assay in Myotubes, α7 integrin LacZ reporter signal relative to DMSO: 0.9598
[2]; 20 uM
  Burkin Assay in Myotubes, α7 integrin LacZ reporter signal relative to DMSO: 1.024
[2]; 40 uM
  Burkin Assay in Myotubes, α7 integrin LacZ reporter signal relative to DMSO: 0.8202
[3]; 0.5 uM
  CMV-LACZ in Myoblasts (β-galactosidase activity relative to DMSO): 1.0338
[3]; 1 uM
  CMV-LACZ in Myoblasts (β-galactosidase activity relative to DMSO): 0.9325
[3]; 5 uM
  CMV-LACZ in Myoblasts (β-galactosidase activity relative to DMSO): 1.0737
[3]; 10 uM
  CMV-LACZ in Myoblasts (β-galactosidase activity relative to DMSO): 1.2515
[3]; 20 uM
  CMV-LACZ in Myoblasts (β-galactosidase activity relative to DMSO): 1.1193
[3]; 40 uM
  CMV-LACZ in Myoblasts (β-galactosidase activity relative to DMSO): 0.9063
[4]; 0.5 uM
  CMV-LACZ in Myotubes, signal relative to DMSO: 1.0371
[4]; 1 uM
  CMV-LACZ in Myotubes, signal relative to DMSO: 1.1133
[4]; 5 uM
  CMV-LACZ in Myotubes, signal relative to DMSO: 1.0717
[4]; 10 uM
  CMV-LACZ in Myotubes, signal relative to DMSO: 1.1225
[4]; 20 uM
  CMV-LACZ in Myotubes, signal relative to DMSO: 0.9400
[4]; 40 uM
  CMV-LACZ in Myotubes, signal relative to DMSO: 0.8905

## CN1CCN(c2ccccc2/C=C2/C(=O)Nc3ccccc32)CC1 [MLS001182377-01]
[1]; 0.5 uM
  Burkin Assay in Myoblasts, value relative to DMSO: 1.179
[1]; 1 uM
  Burkin Assay in Myoblasts, value relative to DMSO: 1.045
[1]; 5 uM
  Burkin Assay in Myoblasts, value relative to DMSO: 0.915
[1]; 10 uM
  Burkin Assay in Myoblasts, value relative to DMSO: 0.9061
[1]; 20 uM
  Burkin Assay in Myoblasts, value relative to DMSO: 0.8744
[1]; 40 uM
  Burkin Assay in Myoblasts, value relative to DMSO: 0.6176
[2]; 0.5 uM
  Burkin Assay in Myotubes, value relative to DMSO: 1.015
[2]; 1 uM
  Burkin Assay in Myotubes, value relative to DMSO: 1.021
[2]; 5 uM
  Burkin Assay in Myotubes, value relative to DMSO: 0.9372
[2]; 10 uM
  Burkin Assay in Myotubes, value relative to DMSO: 0.9389
[2]; 20 uM
  Burkin Assay in Myotubes, value relative to DMSO: 0.8654
[2]; 40 uM
  Burkin Assay in Myotubes, value relative to DMSO: 0.9149
[3]; 0.5 uM
  CMV-LACZ in Myoblasts, value relative to DMSO: 1.1229
[3]; 1 uM
  CMV-LACZ in Myoblasts, value relative to DMSO: 1.1646
[3]; 5 uM
  CMV-LACZ in Myoblasts, value relative to DMSO: 0.9113
[3]; 10 uM
  CMV-LACZ in Myoblasts, value relative to DMSO: 0.9294
[3]; 20 uM
  CMV-LACZ in Myoblasts, value relative to DMSO: 0.4441
[3]; 40 uM
  CMV-LACZ in Myoblasts, value relative to DMSO: 0.4170
[4]; 0.5 uM
  CMV-LACZ in Myotubes, value relative to DMSO: 0.7762
[4]; 1 uM
  CMV-LACZ in Myotubes, value relative to DMSO: 0.8105
[4]; 5 uM
  CMV-LACZ in Myotubes, value relative to DMSO: 0.9608
[4]; 10 uM
  CMV-LACZ in Myotubes, value relative to DMSO: 1.0589
[4]; 20 uM
  CMV-LACZ in Myotubes, value relative to DMSO: 1.0305
[4]; 40 uM
  CMV-LACZ in Myotubes, value relative to DMSO: 1.0263
